From patent publication US7208146B2, “Methods of treating lymphoma and leukemia” (Genitope Corporation, priority 1996, dated 2007)

Tested on: parental BW5147.G.1.4 cells
Assay: MTX sensitivity (growth cut off) of the parental cell line
Type: cell-based
Procedure: The parental (i e., non-transfected) BW5147.G.1.4 cells barely grow in the presence of 10 nM MTX. By visual inspection 3 to 5 days after plating, greater than about 98 percent of the parental BW5147.G.1.4 cells are killed when 1×10^4 cells are placed in 2 ml of medium containing 20 nM MTX in the well of a 24 well plate (this level of MTX is referred to as the growth cut off for the parental BW5147.G.1.4 cell line). At 30 nM MTX, colonies of BW5147.G.1.4 cells are seen at a frequency of less than 10^−7.
The transfected and selected cells (“selectants”) are plated in a range of MTX concentrations ranging from 10 to 100 nM; the cells are plated at a density of 1 to 5×10^4 cells per well in a 24 well plate (Costar); the selectants are plated at the same density of cells as was used to determine the level of MTX at which > about 98% of the parental cells were killed. This is done because MTX irreversibly binds to DHFR so that the number of cells present in a given volume effects the concentration of MTX required to kill the cells; that is if a higher density of cell is used, a higher concentration of MTX will be required to kill about 98% of the cells [For example when the parental cells are plated at a density of 1×10^4 cells/2 ml medium in the well of a 24 well plate 20 nM MTX is sufficient to kill >98% cells in a 3 to 5 day assay. If the density is increased two-fold (1×10^4 cells in ml medium), 25 nM MTX is required for >98% killing. If 5×10^4 cells are placed in 2 ml of medium in the well of a 24 well plate, 30 nM MTX is required to achieve >98% killing.]
Eight selectant clones having the highest levels of expression of DR were chosen for further manipulation. These eight selectant clones were then tested for their sensitivity to MTX. Each clone was plated at a density of 2×10^4 cells/well in a 24 well plate. Each well contained 1 ml of medium containing RPMI-1640, 10% dialyzed FCS and MTX. The clones were grown in the presence of either 3, 10, 30, 60 or 90 nM MTX. Non-transfected BW5147.G.1.4 cells were also grown in the above range of MTX as a control. Clones which grew in MTX levels at least 2–3 fold higher than that tolerated by the parental BW5147.G.1.4 (typically less than or equal to 10 nM MTX) were selected for further analysis. Four of the selectant clones grew in greater than or equal to 30 nM MTX and were retained; these clones are the primary transfectants chosen for amplification. All 4 clones which grew in >30 nM MTX were analyzed for the ability to express DR molecules on the surface by an ELISA. The cell surface ELISA was performed as follows.

SMILES: CN(Cc1cnc2nc(N)nc(N)c2n1)c1ccc(C(=O)N[C@@H](CCC(=O)O)C(=O)O)cc1 [MTX, methotrexate]
- growth of parental cells in the presence of MTX (10 nM MTX): barely grow
- parental BW5147.G.1.4 cells killed (20 nM MTX, 1×10^4 cells in 2 ml medium, well of a 24 well plate, visual inspection 3 to 5 days after plating): greater than 98%
- frequency of colonies of BW5147.G.1.4 cells (30 nM MTX): less than 10^−7
- MTX concentration sufficient to kill >98% of parental cells (1×10^4 cells/2 ml medium, 24 well plate, 3 to 5 day assay): 20 nM
- MTX level tolerated by parental BW5147.G.1.4 (2×10^4 cells/well in 1 ml, 24 well plate, RPMI-1640 with 10% dialyzed FCS): less than or equal to 10 nM
- MTX concentration required for >98% killing of parental cells (5×10^4 cells in 2 ml medium, 24 well plate): 30 nM
- MTX concentration required for >98% killing of parental cells (density increased two-fold (1×10^4 cells in ml medium)): 25 nM
